We go through ten molecules from patent US20260083865A1, “PROSTATE SPECIFIC MEMBRANE ANTIGEN (PSMA) LIGANDS AND USE THEREOF” (priority 2022, published 2026).

Experiment [1] addresses T1, PSMA-expressing C4-2 cells (Homo sapiens, UniProt Q04609).
T1 construct: PSMA-expressing C4-2 cells (ATCC, Cat. No. CRL-3314) were cultured in RPMI-1640; host or cells: C4-2 cells
The experiment is described as follows: FACS binding assay (competition with 50 nM PSM-0183). As to conditions: pIC50 category of FACS binding, C4-2 cells; read-out: pIC50 [C4-2] CAT (converted). The procedure, abridged: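 C4-2 cells were incubated 1 h at 4 °C with 50 nM AF488-labelled peptide PSM-0183 plus increasing test compound concentrations, then washed twice in ice-cold buffer. Median fluorescence in the AF488 channel was read by flow cytometry. IC50/pIC50 was derived by 4PL fitting of MFI versus concentration.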

For experiment [2], the target named is T2, Fc-fusion protein of human PSMA (hPSMA-Fc) (Homo sapiens, UniProt Q04609).
T2 construct: purchased Acro Biosystems PSA-H5264
The experiment is described as follows: Surface plasmon resonance assay (Biacore T200, single cycle kinetic). The experiment is classed as binding. Conditions: pKD category for PSMA SPR activity assay, hPSMA-Fc, 25° C.; read-out: pKD CAT (converted). The procedure, abridged: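 hPSMA-Fc was captured (~1000 RU) on an Fc-binding-peptide CM5 chip, and compounds were run in single cycle kinetic mode at 25° C in HBST with 0.1% DMSO. Double-blank-corrected sensorgrams were fitted to a 1:1 Langmuir model to give KD, reported as pKD.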
Background: In SPR one partner is held on a chip, and binding of the other changes the refractive index at the surface.

Numbered stars: 1 amine (or outer) side, 2 acyl side, 3 side chain; on linkers, the order of the positions; unused ones are H or OH. Bridge positions count the residues as written; N and C are the ends. Square brackets hold non-standard residues; d marks the D form. Side chains are listed from the residue outwards. Peptide text beside a SMILES is read from it. * marks the point of attachment. TtdsdLys(DOTA)NH2 = NC(=O)[C@@H](CCCCNC(=O)CN1CCN(CC(=O)O)CCN(CC(=O)O)CCN(CC(=O)O)CC1)NC(=O)CCC(=O)NCCCOCCOCCOCCCN*; Acetyl(1-DOTA-4-piperidyl) = O=C(O)CN1CCN(CC(=O)O)CCN(CC(=O)N2CCC(CC(=O)*)CC2)CCN(CC(=O)O)CC1; X3 = O=C(O)CN1CCN(CC(=O)O)CCN(CC(=O)NCCCOCCOCCOCCCN*)CCN(CC(=O)O)CC1; DOTA = O=C(O)CN1CCN(CC(=O)O)CCN(CC(=O)*)CCN(CC(=O)O)CC1; Trp(5-Cl) = N[C@@H](Cc1c[nH]c2ccc(Cl)cc12)C(=O)O; Phe(3-CF3) = N[C@@H](Cc1cccc(C(F)(F)F)c1)C(=O)O; Oic = O=C(O)[C@@H]1C[C@@H]2CCCC[C@@H]2N1; Phe(4-Cl) = N[C@@H](Cc1ccc(Cl)cc1)C(=O)O; Arg(Me) = CNC(=N)NCCC[C@H](N)C(=O)O; X1 = O=C(CC1CCN([*:1])CC1)[*:2]; Cit = NC(=O)NCCC[C@H](N)C(=O)O; Lys(Me) = CNCCCC[C@H](N)C(=O)O; Suc = O=C(CCC(=O)[*:2])[*:1]; Tle = CC(C)(C)[C@H](N)C(=O)O; Hexanoyl = CCCCCC(=O)*; AEEA = NCCOCCOCC(=O)O; Aib = CC(C)(N)C(=O)O

T2 sequence (Q04609 44-750 limits assumed): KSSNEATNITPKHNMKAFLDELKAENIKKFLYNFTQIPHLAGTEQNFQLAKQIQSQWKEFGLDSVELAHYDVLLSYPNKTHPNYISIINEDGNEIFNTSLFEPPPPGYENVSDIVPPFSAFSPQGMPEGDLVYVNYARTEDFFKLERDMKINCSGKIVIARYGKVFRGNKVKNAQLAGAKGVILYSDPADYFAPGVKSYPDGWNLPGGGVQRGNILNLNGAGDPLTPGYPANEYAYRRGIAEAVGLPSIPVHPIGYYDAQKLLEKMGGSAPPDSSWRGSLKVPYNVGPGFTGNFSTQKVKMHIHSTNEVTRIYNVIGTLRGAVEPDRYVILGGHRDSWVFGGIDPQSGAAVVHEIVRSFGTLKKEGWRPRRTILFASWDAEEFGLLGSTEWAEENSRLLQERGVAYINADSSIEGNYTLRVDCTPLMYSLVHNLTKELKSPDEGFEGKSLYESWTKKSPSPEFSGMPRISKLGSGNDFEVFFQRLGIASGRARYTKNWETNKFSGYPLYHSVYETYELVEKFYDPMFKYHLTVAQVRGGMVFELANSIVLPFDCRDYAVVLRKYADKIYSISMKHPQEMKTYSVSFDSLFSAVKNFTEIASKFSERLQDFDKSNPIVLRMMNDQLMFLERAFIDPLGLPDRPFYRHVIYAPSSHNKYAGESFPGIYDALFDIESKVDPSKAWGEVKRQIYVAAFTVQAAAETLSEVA
T1 sequence (Q04609 whole entry): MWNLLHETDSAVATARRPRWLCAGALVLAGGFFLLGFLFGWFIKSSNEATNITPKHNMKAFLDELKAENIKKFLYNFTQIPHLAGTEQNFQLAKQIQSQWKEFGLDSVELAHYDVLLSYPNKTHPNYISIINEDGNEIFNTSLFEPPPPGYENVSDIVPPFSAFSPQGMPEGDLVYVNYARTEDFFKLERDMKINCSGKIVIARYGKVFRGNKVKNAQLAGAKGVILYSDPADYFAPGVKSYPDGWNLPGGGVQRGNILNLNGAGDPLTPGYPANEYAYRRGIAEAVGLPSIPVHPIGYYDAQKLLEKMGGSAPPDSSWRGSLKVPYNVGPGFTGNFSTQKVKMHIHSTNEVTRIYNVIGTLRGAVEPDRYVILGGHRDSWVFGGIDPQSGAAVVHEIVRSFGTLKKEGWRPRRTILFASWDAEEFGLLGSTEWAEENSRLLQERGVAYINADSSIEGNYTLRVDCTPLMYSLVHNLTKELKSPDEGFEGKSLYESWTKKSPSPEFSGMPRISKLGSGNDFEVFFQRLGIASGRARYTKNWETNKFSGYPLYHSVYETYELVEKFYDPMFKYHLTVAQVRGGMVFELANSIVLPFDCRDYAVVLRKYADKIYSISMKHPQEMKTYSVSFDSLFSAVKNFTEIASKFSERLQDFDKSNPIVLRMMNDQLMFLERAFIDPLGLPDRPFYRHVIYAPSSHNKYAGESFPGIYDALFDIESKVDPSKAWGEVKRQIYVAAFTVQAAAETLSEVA

Regarding `CNCCCC[C@@H]1NC(=O)[C@@H](NC(=O)[C@H](Cc2cccc(C(F)(F)F)c2)NC(=O)C(C)(C)NC(=O)[C@@H](NC(=O)CC2CCN(C(=O)CN3CCN(CC(=O)O)CCN(CC(=O)O)CCN(CC(=O)O)CC3)CC2)[C@@H](C)O)CSSC[C@@H](C(=O)N[C@H](C(N)=O)C(C)(C)C)NC(=O)[C@H](CC(N)=O)NC(=O)C(C)(C)NC(=O)[C@H](CCCNC(=N)NC)NC1=O` [PSM-0396, DOTA-Cmp-Thr-Aib-Mtf-[Cys-Lys(Me)-Arg(Me)-Aib-Asn-Cys]-Tle-NH2] ({DOTA}-[X1]T[Aib][Phe(3-CF3)]C[Lys(Me)][Arg(Me)][Aib]NC[Tle]-NH2; disulfide 5-10), the IC50 in experiment [1] is less than 200 nM. For the same molecule, in experiment [2], the Kd was less than 12.6 nM.
The like results for `CC(=O)N[C@H](C(=O)NC(C)(C)C(=O)N[C@@H](Cc1ccccc1)C(=O)N[C@H]1CSSC[C@@H](C(=O)N[C@H](C(=O)N[C@H](C(=O)N[C@@H](CC(=O)O)C(N)=O)[C@@H](C)O)C(C)(C)C)NC(=O)[C@H](CC(N)=O)NC(=O)[C@H](CCCCNC(=O)CN2CCN(CC(=O)O)CCN(CC(=O)O)CCN(CC(=O)O)CC2)NC(=O)[C@H](CCCNC(=N)N)NC(=O)[C@H](CCCCN)NC1=O)[C@@H](C)O` [PSM-0397, Ac-Thr-Aib-Phe-[Cys-Lys-Arg-Lys(DOTA)-Asn-Cys]-Tle-Thr-Asp-NH2] (Ac-T[Aib]FCKRK(DOTA)NC[Tle]TD-NH2; disulfide 4-9) were, in that order, less than 200 nM and 12.6 to 126 nM.
Regarding `C[C@@H](O)[C@H](NC(=O)CCC(=O)NCCCOCCOCCOCCCNC(=O)CN1CCN(CC(=O)O)CCN(CC(=O)O)CCN(CC(=O)O)CC1)C(=O)NC(C)(C)C(=O)N[C@@H](Cc1ccccc1)C(=O)N[C@H]1CSSC[C@@H](C(=O)N[C@H](C(=O)N[C@H](C(=O)N[C@@H](CC(=O)O)C(N)=O)[C@@H](C)O)C(C)(C)C)NC(=O)[C@H](CC(N)=O)NC(=O)C(C)(C)NC(=O)[C@H](CCCNC(=N)N)NC(=O)[C@H](CCCCN)NC1=O` [PSM-0398, DOTA-Ttds-Thr-Aib-Phe-[Cys-Lys-Arg-Aib-Asn-Cys]-Tle-Thr-Asp-NH2] ({X3-Suc}-T[Aib]FCKR[Aib]NC[Tle]TD-NH2; disulfide 4-9), the IC50 in experiment [1] is less than 200 nM. For the same molecule, in experiment [2], the Kd is less than 12.6 nM.
The like results for `CCCCCC(=O)N[C@H](C(=O)NC(C)(C)C(=O)N[C@@H](Cc1ccc(Cl)cc1)C(=O)N[C@H]1CSSC[C@@H](C(=O)N[C@H](C(=O)N[C@H](C(=O)N[C@H](CCCCNC(=O)CC2CCN(C(=O)CN3CCN(CC(=O)O)CCN(CC(=O)O)CCN(CC(=O)O)CC3)CC2)C(N)=O)[C@@H](C)O)C(C)(C)C)NC(=O)[C@H](CC(N)=O)NC(=O)C(C)(C)NC(=O)[C@H](CCCNC(=N)N)NC(=O)[C@H](CCCCN)NC1=O)[C@@H](C)O` [PSM-0400, Hex-Thr-Aib-Pcf-[Cys-Lys-Arg-Aib-Asn-Cys]-Tle-Thr-lys(DOTA-Cmp)-NH2] (Hexanoyl-T[Aib][Phe(4-Cl)]CKR[Aib]NC[Tle]T[dK](Acetyl(1-DOTA-4-piperidyl))-NH2; disulfide 4-9) were, in that order, less than 200 nM and less than 12.6 nM.
The like results for `CC(=O)N[C@H](C(=O)NC(C)(C)C(=O)N[C@@H](Cc1ccccc1)C(=O)N[C@H]1CSSC[C@@H](C(=O)N[C@H](C(=O)N[C@H](C(N)=O)[C@@H](C)O)C(C)(C)C)NC(=O)[C@H](CC(N)=O)NC(=O)[C@H](CCCCNC(=O)COCCOCCNC(=O)CN2CCN(CC(=O)O)CCN(CC(=O)O)CCN(CC(=O)O)CC2)NC(=O)[C@H](CCCNC(=N)N)NC(=O)[C@H](CCCCN)NC1=O)[C@@H](C)O` [PSM-0401, Ac-Thr-Aib-Phe-[Cys-Lys-Arg-Lys(DOTA-020c)-Asn-Cys]-Tle-Thr-NH2] (Ac-T[Aib]FCKRK([AEEA-DOTA])NC[Tle]T-NH2; disulfide 4-9) were, in that order, less than 200 nM and less than 12.6 nM.
The like results for `CC(=O)N[C@H](C(=O)NC(C)(C)C(=O)N[C@@H](Cc1ccccc1)C(=O)N[C@H]1CSSC[C@@H](C(=O)N[C@H](C(=O)N[C@H](C(N)=O)[C@@H](C)O)C(C)(C)C)NC(=O)[C@@H](CC(N)=O)NC(=O)C(C)(C)NC(=O)[C@H](CCCNC(=N)N)NC(=O)[C@H](CCCCN)NC1=O)[C@@H](C)O` [PSM-0402, Ac-Thr-Aib-Phe-[Cys-Lys-Arg-Aib-asn-Cys]-Tle-Thr-NH2] (Ac-T[Aib]FCKR[Aib][dN]C[Tle]T-NH2; disulfide 4-9) were, in that order, less than 200 nM and less than 12.6 nM.
For `CC(=O)N[C@H](C(=O)NC(C)(C)C(=O)N[C@@H](Cc1ccccc1)C(=O)N[C@H]1CSSC[C@@H](C(=O)N[C@H](C(=O)N[C@H](C(=O)N[C@@H](CC(=O)O)C(N)=O)[C@@H](C)O)C(C)(C)C)NC(=O)[C@H](CC(N)=O)NC(=O)[C@@H]2C[C@@H]3CCCC[C@@H]3N2C(=O)[C@H](CCCNC(=N)N)NC(=O)[C@H](CCCCN)NC1=O)[C@@H](C)O` [PSM-0403, Ac-Thr-Aib-Phe-[Cys-Lys-Arg-Oic-Asn-Cys]-Tle-Thr-Asp-NH2] (Ac-T[Aib]FCKR[Oic]NC[Tle]TD-NH2; disulfide 4-9), in experiment [1], the IC50 was less than 200 nM. Also, in experiment [2], the Kd was less than 12.6 nM.
Take `CC(=O)NC(C)(C)C(=O)N[C@@H](Cc1ccc(Cl)cc1)C(=O)N[C@H]1CSSC[C@@H](C(=O)N[C@H](C(=O)N[C@H](C(=O)N[C@H](CCCCNC(=O)CN2CCN(CC(=O)O)CCN(CC(=O)O)CCN(CC(=O)O)CC2)C(N)=O)[C@@H](C)O)C(C)(C)C)NC(=O)[C@H](CC(N)=O)NC(=O)C(C)(C)NC(=O)[C@H](CCCNC(=N)N)NC(=O)[C@H](CCCCN)NC1=O` [PSM-0404, Ac-Aib-Pcf-[Cys-Lys-Arg-Aib-Asn-Cys]-Tle-Thr-lys(DOTA)-NH2] (Ac-[Aib][Phe(4-Cl)]CKR[Aib]NC[Tle]T[dK](DOTA)-NH2; disulfide 3-8): in experiment [1], the IC50 was less than 200 nM. Also, the Kd in experiment [2] was less than 12.6 nM.
The like results for `CCCCCC(=O)N[C@H](C(=O)N[C@@H](C)C(=O)N[C@@H](Cc1ccccc1)C(=O)N[C@H]1CSSC[C@@H](C(=O)N[C@@H](CC(C)C)C(=O)N[C@H](C(=O)N[C@@H](CC(=O)O)C(=O)NCCCOCCOCCOCCCNC(=O)CCC(=O)N[C@H](CCCCNC(=O)CN2CCN(CC(=O)O)CCN(CC(=O)O)CCN(CC(=O)O)CC2)C(N)=O)[C@@H](C)O)NC(=O)[C@H](CC(N)=O)NC(=O)[C@H](C)NC(=O)[C@H](CCCNC(=N)N)NC(=O)[C@H](CCCCN)NC1=O)[C@@H](C)O` [PSM-0405, Hex-Thr-Ala-Phe-[Cys-Lys-Arg-Ala-Asn-Cys]-Leu-Thr-Asp-Ttds-lys(DOTA)-NH2] (Hexanoyl-TAFCKRANCLTD-{TtdsdLys(DOTA)NH2}; disulfide 4-9) were, in that order, less than 200 nM and 12.6 to 126 nM.
The like results for `C[C@@H](O)[C@H](NC(=O)[C@@H](NC(=O)[C@@H]1CSSC[C@H](NC(=O)[C@H](Cc2c[nH]c3ccc(Cl)cc23)NC(=O)C(C)(C)NC(=O)[C@@H](NC(=O)CC2CCN(C(=O)CN3CCN(CC(=O)O)CCN(CC(=O)O)CCN(CC(=O)O)CC3)CC2)[C@@H](C)O)C(=O)N[C@@H](CCCCN)C(=O)N[C@@H](CCCNC(N)=O)C(=O)NC(C)(C)C(=O)N[C@@H](CC(N)=O)C(=O)N1)C(C)(C)C)C(N)=O` [PSM-0406, DOTA-Cmp-Thr-Aib-5Clw-[Cys-Lys-Cit-Aib-Asn-Cys]-Tle-Thr-NH2] ({DOTA}-[X1]T[Aib][Trp(5-Cl)]CK[Cit][Aib]NC[Tle]T-NH2; disulfide 5-10) were, in that order, 1260 to 3160 nM and greater than 501 nM.
